Source: patent US20240398811A1, “PRC2 INHIBITORS FOR USE IN TREATING BLOOD DISORDERS” (ORIC Pharmaceuticals, Inc., priority 2021, published 2024)

Biological target: purified human, His-tagged PRC2 complex (Homo sapiens (Human), UniProt O75530)
Experiment: Hot Spot HMT assay, inhibition of PRC2 enzymatic activity
Type: biochemical
Conditions: 10 nM PRC2 complex, 1 μM 3H-SAM, core histone H3, 10-point dose-response
How it was run: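 Methyl transfer from 1 μM tritiated SAM onto 0.05 mg/ml core histone H3, catalysed by 10 nM His/Flag-tagged human PRC2 holoenzyme, was run 1 hr at 30° C after a 20 min compound preincubation. Serial dilutions began at 1.0 μM; product captured on filters and counted.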

Chain of purified human, His-tagged PRC2 complex (O75530 whole entry): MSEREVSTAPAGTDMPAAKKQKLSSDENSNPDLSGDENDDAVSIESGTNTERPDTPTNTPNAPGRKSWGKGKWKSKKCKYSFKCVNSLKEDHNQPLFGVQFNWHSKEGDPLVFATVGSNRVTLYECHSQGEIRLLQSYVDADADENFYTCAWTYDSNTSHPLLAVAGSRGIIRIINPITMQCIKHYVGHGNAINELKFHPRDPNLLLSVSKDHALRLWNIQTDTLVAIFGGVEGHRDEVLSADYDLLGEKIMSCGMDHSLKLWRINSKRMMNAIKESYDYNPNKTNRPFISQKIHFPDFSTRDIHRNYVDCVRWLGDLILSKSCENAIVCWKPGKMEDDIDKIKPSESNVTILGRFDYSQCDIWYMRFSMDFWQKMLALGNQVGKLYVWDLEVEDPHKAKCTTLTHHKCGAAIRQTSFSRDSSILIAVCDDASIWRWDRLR
Chain of purified human, His-tagged PRC2 complex (Q15910 whole entry partner): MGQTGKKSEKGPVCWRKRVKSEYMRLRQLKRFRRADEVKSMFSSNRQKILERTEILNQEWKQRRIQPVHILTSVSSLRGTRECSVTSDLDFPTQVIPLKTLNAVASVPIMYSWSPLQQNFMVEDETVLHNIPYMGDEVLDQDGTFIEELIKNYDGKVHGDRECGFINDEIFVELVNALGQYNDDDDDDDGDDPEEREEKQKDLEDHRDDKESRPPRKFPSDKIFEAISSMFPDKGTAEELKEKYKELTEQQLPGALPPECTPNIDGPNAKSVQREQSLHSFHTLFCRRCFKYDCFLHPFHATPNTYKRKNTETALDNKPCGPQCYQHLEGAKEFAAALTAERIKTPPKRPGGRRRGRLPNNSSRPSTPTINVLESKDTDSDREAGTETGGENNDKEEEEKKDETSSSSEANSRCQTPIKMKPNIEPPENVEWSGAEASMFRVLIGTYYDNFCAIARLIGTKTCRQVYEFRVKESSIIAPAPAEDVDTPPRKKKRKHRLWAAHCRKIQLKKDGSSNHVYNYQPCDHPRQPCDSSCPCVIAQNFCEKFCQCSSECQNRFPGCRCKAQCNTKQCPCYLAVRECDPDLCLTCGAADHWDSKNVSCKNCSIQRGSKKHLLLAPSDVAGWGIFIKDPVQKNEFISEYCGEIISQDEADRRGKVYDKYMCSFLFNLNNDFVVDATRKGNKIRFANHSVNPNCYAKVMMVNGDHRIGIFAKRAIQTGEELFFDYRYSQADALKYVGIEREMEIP
Chain of purified human, His-tagged PRC2 complex (Q15022 whole entry partner): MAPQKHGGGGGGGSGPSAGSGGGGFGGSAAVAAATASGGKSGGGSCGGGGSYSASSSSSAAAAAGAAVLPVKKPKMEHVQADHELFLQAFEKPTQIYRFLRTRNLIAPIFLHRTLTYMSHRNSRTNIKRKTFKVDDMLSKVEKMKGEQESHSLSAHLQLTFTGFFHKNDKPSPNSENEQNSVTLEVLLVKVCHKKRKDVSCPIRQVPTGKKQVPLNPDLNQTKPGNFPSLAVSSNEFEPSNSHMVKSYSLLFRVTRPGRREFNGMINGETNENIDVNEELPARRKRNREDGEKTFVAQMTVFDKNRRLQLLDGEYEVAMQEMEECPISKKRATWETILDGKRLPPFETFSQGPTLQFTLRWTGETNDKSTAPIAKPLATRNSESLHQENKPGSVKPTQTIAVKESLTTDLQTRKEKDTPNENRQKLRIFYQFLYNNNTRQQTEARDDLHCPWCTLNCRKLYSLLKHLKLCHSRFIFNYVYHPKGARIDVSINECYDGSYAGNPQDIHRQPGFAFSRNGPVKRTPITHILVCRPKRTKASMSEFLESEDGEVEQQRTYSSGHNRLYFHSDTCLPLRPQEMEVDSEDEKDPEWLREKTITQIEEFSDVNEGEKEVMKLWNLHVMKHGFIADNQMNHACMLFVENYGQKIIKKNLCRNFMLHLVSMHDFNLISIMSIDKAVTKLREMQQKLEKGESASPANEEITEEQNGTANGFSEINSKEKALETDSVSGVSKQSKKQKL
Chain of purified human, His-tagged PRC2 complex (Q6ZN18 whole entry partner): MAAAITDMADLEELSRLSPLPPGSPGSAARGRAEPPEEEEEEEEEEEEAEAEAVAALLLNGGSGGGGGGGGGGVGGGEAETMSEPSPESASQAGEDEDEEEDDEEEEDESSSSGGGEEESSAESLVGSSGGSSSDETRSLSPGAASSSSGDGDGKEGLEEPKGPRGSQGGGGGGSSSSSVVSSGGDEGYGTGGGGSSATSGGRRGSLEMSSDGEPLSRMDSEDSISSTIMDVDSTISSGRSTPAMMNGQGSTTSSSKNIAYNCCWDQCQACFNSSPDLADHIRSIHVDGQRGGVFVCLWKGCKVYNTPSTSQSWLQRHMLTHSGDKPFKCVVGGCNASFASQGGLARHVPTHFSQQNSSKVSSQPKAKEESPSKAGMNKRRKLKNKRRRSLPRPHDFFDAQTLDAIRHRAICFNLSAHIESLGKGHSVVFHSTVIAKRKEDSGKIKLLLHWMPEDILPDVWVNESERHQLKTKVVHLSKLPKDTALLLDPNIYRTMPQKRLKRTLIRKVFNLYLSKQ
Chain of purified human, His-tagged PRC2 complex (Q09028 whole entry partner): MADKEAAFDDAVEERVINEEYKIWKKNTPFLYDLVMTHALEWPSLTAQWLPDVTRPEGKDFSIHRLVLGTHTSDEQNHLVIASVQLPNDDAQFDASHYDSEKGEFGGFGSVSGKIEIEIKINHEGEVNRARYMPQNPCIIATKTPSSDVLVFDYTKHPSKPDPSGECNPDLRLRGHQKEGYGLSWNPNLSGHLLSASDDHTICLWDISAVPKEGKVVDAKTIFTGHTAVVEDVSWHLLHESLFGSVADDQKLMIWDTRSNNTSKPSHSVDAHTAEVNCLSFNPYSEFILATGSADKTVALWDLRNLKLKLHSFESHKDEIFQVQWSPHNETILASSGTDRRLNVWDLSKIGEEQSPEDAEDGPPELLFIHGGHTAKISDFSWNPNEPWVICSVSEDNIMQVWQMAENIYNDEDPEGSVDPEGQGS

Compound | IC50 [nM]
CC(O)Cn1cc(-c2cnc(NCc3c(F)ccc4c3CCO4)n3cc(C#N)nc23)cn1 (stereo not drawn) [Example 179, 5-(((5-fluoro-2,3-dihydrobenzofuran-4-yl)methyl)amino)-8-(1-(2-hydroxypropyl)-1H-pyrazol-4-yl)imidazo[1,2-c]pyrimidine-2-carbonitrile] | < 100
CN(C)C(=O)c1ccc(-c2cnc(NCc3c(F)ccc4c3CCO4)n3cc(C#N)nc23)cc1 [Example 180, 4-(2-cyano-5-(((5-fluoro-2,3-dihydrobenzofuran-4-yl)methyl)amino)imidazo[1,2-c]pyrimidin-8-yl)-N,N-dimethylbenzamide] | < 100
N#Cc1cn2c(NCc3c(F)ccc4c3CCO4)ncc(-c3ccc(C(=O)N4CCOCC4)cc3)c2n1 [Example 181, 5-(((5-fluoro-2,3-dihydrobenzofuran-4-yl)methyl)amino)-8-(4-(morpholine-4-carbonyl)phenyl)imidazo[1,2-c]pyrimidine-2-carbonitrile] | < 100
N#Cc1cn2c(NCc3c(F)ccc4c3CCO4)ncc(-c3cnn(CCO)c3)c2n1 [Example 182, 5-(((5-fluoro-2,3-dihydrobenzofuran-4-yl)methyl)amino)-8-(1-(2-hydroxyethyl)-1H-pyrazol-4-yl)imidazo[1,2-c]pyrimidine-2-carbonitrile] | 100 to 500
N#Cc1cn2c(NCc3c(F)ccc4c3CCO4)ncc(-c3ccc(C(=O)O)cc3)c2n1 [Example 183, 4-(2-cyano-5-(((5-fluoro-2,3-dihydrobenzofuran-4-yl)methyl)amino)imidazo[1,2-c]pyrimidin-8-yl)benzoic acid] | < 100
Cc1cc(S(=O)(=O)C(F)(F)F)ccc1-c1cnc(NCc2c(F)ccc3c2CCO3)n2cc(C#N)nc12 [Example 184, 5-(((5-fluoro-2,3-dihydrobenzofuran-4-yl)methyl)amino)-8-(2-methyl-4-((trifluoromethyl)sulfonyl)phenyl)imidazo[1,2-c]pyrimidine-2-carbonitrile] | 100 to 500
CNCc1ccc(-c2cnc(NCc3c(F)ccc4c3CCO4)n3cc(C#N)nc23)cc1 [Example 185, 5-(((5-fluoro-2,3-dihydrobenzofuran-4-yl)methyl)amino)-8-(4-((methylamino)methyl)phenyl)imidazo[1,2-c]pyrimidine-2-carbonitrile] | < 100
CNC(=O)c1ccc(-c2cnc(NCc3c(F)ccc4c3CCO4)n3cc(C#N)nc23)cc1 [Example 186, 4-(2-cyano-5-(((5-fluoro-2,3-dihydrobenzofuran-4-yl)methyl)amino)imidazo[1,2-c]pyrimidin-8-yl)-N-methylbenzamide] | < 100
N#Cc1cn2c(NCc3c(F)ccc4c3CCO4)ncc(-c3ccccc3C#N)c2n1 [Example 187, 8-(2-cyanophenyl)-5-(((5-fluoro-2,3-dihydrobenzofuran-4-yl)methyl)amino)imidazo[1,2-c]pyrimidine-2-carbonitrile] | < 100
N#Cc1cc(-c2cnc(NCc3c(F)ccc4c3CCO4)n3cc(C#N)nc23)ccn1 [Example 188, 8-(2-cyanopyridin-4-yl)-5-(((5-fluoro-2,3-dihydrobenzofuran-4-yl)methyl)amino)imidazo[1,2-c]pyrimidine-2-carbonitrile] | 100 to 500
CN(C)CCOc1ccc(-c2cnc(NCc3c(F)ccc4c3CCO4)n3cc(C#N)nc23)cc1 [Example 189, 8-(4-(2-(dimethylamino)ethoxy)phenyl)-5-(((5-fluoro-2,3-dihydrobenzofuran-4-yl)methyl)amino)imidazo[1,2-c]pyrimidine-2-carbonitrile] | 100 to 500
N#Cc1cn2c(NCc3c(F)ccc4c3CCO4)ncc(-c3ccc(-c4nnn[nH]4)cc3)c2n1 [Example 190, 8-(4-(1H-tetrazol-5-yl)phenyl)-5-(((5-fluoro-2,3-dihydrobenzofuran-4-yl)methyl)amino)imidazo[1,2-c]pyrimidine-2-carbonitrile] | < 100
COCCOc1ncc(-c2cnc(NCc3c(F)ccc4c3CCO4)n3cc(C#N)nc23)cn1 [Example 191, 5-(((5-fluoro-2,3-dihydrobenzofuran-4-yl)methyl)amino)-8-(2-(2-methoxyethoxy)pyrimidin-5-yl)imidazo[1,2-c]pyrimidine-2-carbonitrile] | 100 to 500
Cc1ccc(-c2cnc(NCc3c(F)ccc4c3CCO4)n3cc(C#N)nc23)c(C)c1 [Example 192, 8-(2,4-dimethylphenyl)-5-(((5-fluoro-2,3-dihydrobenzofuran-4-yl)methyl)amino)imidazo[1,2-c]pyrimidine-2-carbonitrile] | > 500
N#Cc1cn2c(NCc3c(F)ccc4c3CCO4)ncc(-c3ccnn3C3CC3)c2n1 [Example 193, 8-(1-cyclopropyl-1H-pyrazol-5-yl)-5-(((5-fluoro-2,3-dihydrobenzofuran-4-yl)methyl)amino)imidazo[1,2-c]pyrimidine-2-carbonitrile] | < 100
Cn1nccc(-c2cnc(NCc3c(F)ccc4c3CCO4)n3cc(C#N)nc23)c1=O [Example 194, 5-(((5-fluoro-2,3-dihydrobenzofuran-4-yl)methyl)amino)-8-(2-methyl-3-oxo-2,3-dihydropyridazin-4-yl)imidazo[1,2-c]pyrimidine-2-carbonitrile] | 100 to 500
Cc1cc(CN(C)C)ncc1-c1cnc(NCc2c(F)ccc3c2CCO3)n2cc(C#N)nc12 [Example 195, 8-(6-((dimethylamino)methyl)-4-methylpyridin-3-yl)-5-(((5-fluoro-2,3-dihydrobenzofuran-4-yl)methyl)amino)imidazo[1,2-c]pyrimidine-2-carbonitrile] | < 100
CNCc1ccc(-c2cnc(NCc3c(F)ccc4c3CCO4)n3cc(C#N)nc23)c(C)c1 [Example 196, 5-(((5-fluoro-2,3-dihydrobenzofuran-4-yl)methyl)amino)-8-(2-methyl-4-((methylamino)methyl)phenyl)imidazo[1,2-c]pyrimidine-2-carbonitrile] | 100 to 500
CNCc1ccc(-c2cnc(NCc3c(F)ccc4c3CCO4)n3cc(C#N)nc23)cc1F [Example 197, 5-(((5-fluoro-2,3-dihydrobenzofuran-4-yl)methyl)amino)-8-(3-fluoro-4-((methylamino)methyl)phenyl)imidazo[1,2-c]pyrimidine-2-carbonitrile] | < 100
CN(C)Cc1ccc(-c2cnc(NCc3c(F)ccc4c3CCO4)n3cc(C#N)nc23)c(C#N)c1 [Example 198, 8-(2-cyano-4-((dimethylamino)methyl)phenyl)-5-(((5-fluoro-2,3-dihydrobenzofuran-4-yl)methyl)amino)imidazo[1,2-c]pyrimidine-2-carbonitrile] | < 100
CC(c1ccc(-c2cnc(NCc3c(F)ccc4c3CCO4)n3cc(C#N)nc23)cc1)N(C)C (stereo not drawn) [Example 199, 8-(4-(1-(dimethylamino)ethyl)phenyl)-5-(((5-fluoro-2,3-dihydrobenzofuran-4-yl)methyl)amino)imidazo[1,2-c]pyrimidine-2-carbonitrile] | < 100
Cc1cc(-c2cnc(NCc3c(F)ccc4c3CCO4)n3cc(C#N)nc23)ccc1CN(C)C [Example 200, 8-(4-((dimethylamino)methyl)-3-methylphenyl)-5-(((5-fluoro-2,3-dihydrobenzofuran-4-yl)methyl)amino)imidazo[1,2-c]pyrimidine-2-carbonitrile] | 100 to 500
CN(C)Cc1ccc(-c2cnc(NCc3c(F)ccc4c3CCO4)n3cc(C#N)nc23)cc1C#N [Example 201, 8-(3-cyano-4-((dimethylamino)methyl)phenyl)-5-(((5-fluoro-2,3-dihydrobenzofuran-4-yl)methyl)amino)imidazo[1,2-c]pyrimidine-2-carbonitrile] | < 100
[2H]C([2H])([2H])N(Cc1ccc(-c2cnc(NCc3c(F)ccc4c3CCO4)n3cc(C#N)nc23)c(C)c1)C([2H])([2H])[2H] [Example 202, 8-(4-((bis(methyl-d3)amino)methyl)-2-methylphenyl)-5-(((5-fluoro-2,3-dihydrobenzofuran-4-yl)methyl)amino)imidazo[1,2-c]pyrimidine-2-carbonitrile] | < 100
N#Cc1cn2c(NCc3c(F)ccc4c3CCO4)ncc(-c3ccc4c(c3)CCNC4)c2n1 [Example 203, 5-(((5-fluoro-2,3-dihydrobenzofuran-4-yl)methyl)amino)-8-(1,2,3,4-tetrahydroisoquinolin-6-yl)imidazo[1,2-c]pyrimidine-2-carbonitrile] | 100 to 500
N#Cc1cn2c(NCc3c(F)ccc4c3CCO4)ncc(-c3ccc(C4CCCN4)cc3)c2n1 (stereo not drawn) [Example 204, 5-(((5-fluoro-2,3-dihydrobenzofuran-4-yl)methyl)amino)-8-(4-(pyrrolidin-2-yl)phenyl)imidazo[1,2-c]pyrimidine-2-carbonitrile] | 100 to 500
N#Cc1cn2c(NCc3c(F)ccc4c3CCO4)ncc(-c3ccc4c(c3)CNC4)c2n1 [Example 205, 5-(((5-fluoro-2,3-dihydrobenzofuran-4-yl)methyl)amino)-8-(isoindolin-5-yl)imidazo[1,2-c]pyrimidine-2-carbonitrile] | 100 to 500
COCCOc1ccc(-c2cnc(NCc3c(F)ccc4c3CCO4)n3cc(C#N)nc23)c(C)c1 [Example 206, 5-(((5-fluoro-2,3-dihydrobenzofuran-4-yl)methyl)amino)-8-(4-(2-methoxyethoxy)-2-methylphenyl)imidazo[1,2-c]pyrimidine-2-carbonitrile] | 100 to 500
Cc1cc(CN(C)C)ccc1-c1cnc(NCc2c(F)ccc3c2C(O)CO3)n2cc(C#N)nc12 (stereo not drawn) [Example 207, 8-(4-((dimethylamino)methyl)-2-methylphenyl)-5-(((5-fluoro-3-hydroxy-2,3-dihydrobenzofuran-4-yl)methyl)amino)imidazo[1,2-c]pyrimidine-2-carbonitrile] | < 100
CNC(=O)c1cc(-c2cnc(NCc3c(F)ccc4c3CCO4)n3cc(C#N)nc23)n(C)n1 [Example 208, 5-(2-cyano-5-(((5-fluoro-2,3-dihydrobenzofuran-4-yl)methyl)amino)imidazo[1,2-c]pyrimidin-8-yl)-N,1-dimethyl-1H-pyrazole-3-carboxamide] | < 100
